What was measured:
MleS = molecular target: T1, MleS (Lactococcus lactis, UniProt Q48662); experiment: initial H+ consumption rate by pH microelectrode; assay type: biochemical; conditions: product inhibition; 5 mM L-malate, pH 7, 30 °C
T1 sequence (Q48662 1-540): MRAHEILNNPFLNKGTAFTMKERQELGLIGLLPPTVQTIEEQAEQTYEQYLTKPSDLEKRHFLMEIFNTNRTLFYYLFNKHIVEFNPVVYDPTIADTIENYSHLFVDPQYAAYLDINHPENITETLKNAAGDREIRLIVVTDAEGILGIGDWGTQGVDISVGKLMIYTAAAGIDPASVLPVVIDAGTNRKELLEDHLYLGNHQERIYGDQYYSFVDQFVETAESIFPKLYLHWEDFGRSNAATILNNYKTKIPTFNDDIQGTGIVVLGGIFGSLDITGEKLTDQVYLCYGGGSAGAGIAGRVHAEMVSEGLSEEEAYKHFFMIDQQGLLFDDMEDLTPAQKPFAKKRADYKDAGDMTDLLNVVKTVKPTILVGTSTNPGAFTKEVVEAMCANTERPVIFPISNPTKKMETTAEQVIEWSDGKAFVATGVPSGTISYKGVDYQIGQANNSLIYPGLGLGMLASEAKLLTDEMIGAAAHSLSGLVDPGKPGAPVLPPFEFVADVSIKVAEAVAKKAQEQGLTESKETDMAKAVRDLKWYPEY

LacY = molecular target: T2, LacY (Escherichia coli, UniProt P02920); experiment: inhibition of lactose-dependent NADPH production in MleP-LacY vesicles; assay type: biochemical; conditions: 100 µM D-lactose, pH 7, 30 °C; competitive; coupled read-out
T2 sequence (P02920 1-417): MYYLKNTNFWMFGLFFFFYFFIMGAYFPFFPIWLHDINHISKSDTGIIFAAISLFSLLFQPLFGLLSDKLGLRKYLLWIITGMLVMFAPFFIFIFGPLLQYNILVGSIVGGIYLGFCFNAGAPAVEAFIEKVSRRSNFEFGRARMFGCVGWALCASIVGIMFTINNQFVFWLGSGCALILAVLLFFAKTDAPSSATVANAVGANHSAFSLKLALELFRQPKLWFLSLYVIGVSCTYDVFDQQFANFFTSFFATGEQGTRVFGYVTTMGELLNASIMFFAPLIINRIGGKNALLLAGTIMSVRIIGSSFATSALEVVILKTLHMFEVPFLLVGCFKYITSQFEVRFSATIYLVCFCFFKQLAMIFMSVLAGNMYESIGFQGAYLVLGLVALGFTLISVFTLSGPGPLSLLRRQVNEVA

Compound | % reduction of initial rate at 25 mM (MleS) [%] | effect at 20 mM (LacY)
C[C@H](O)C(=O)O [L-lactate] | 50 | –
CS[C@@H]1O[C@H](CO)[C@H](O)[C@H](O)[C@H]1O [methyl-β-D-thiogalactoside] | – | methyl-β-D-thiogalactoside (TMG) and thiodigalactoside (TDG)
OC[C@H]1O[C@@H](S[C@@H]2O[C@H](CO)[C@H](O)[C@H](O)[C@H]2O)[C@H](O)[C@@H](O)[C@H]1O [thiodigalactoside] | – | NADPH fluorescence is reduced in the presence non-hydrolysable substrates

Reference: paper PMC11392934 (Nature Communications, 2024)
